Laboratory results taken from patent publication US11319316B2, “Compounds that induce degradation of anti-apoptotic Bcl-2 family proteins and the uses thereof” (BioVentures, LLC, priority 2016, dated 2022).

Key:
Format in all cases: cell-based
[1] = tested on: Normal WI38 (NSC); experiment: Viability of normal WI38 cells (NSC), 72 h, PI staining and flow cytometry; conditions: Homo sapiens, WI-38, viable (PI-) cells as percentage of vehicle control
Protocol: (§1) Normal WI38 (NSC) and IR-induced senescent WI38 cells (IR-SC) were incubated with vehicle or increasing concentrations of compounds of Formula (I) or Formula (II) for 72 hours. The cells were digested with 0.25% trypsin and 1 mM EDTA, and harvested in PBS containing 2% FBS. After incubation with propidium iodide (PI, 100 ng/ml) in PBS at room temperature for 1 minute, cells were centrifuged at 1,200 rpm for 6 minutes to remove PI and then resuspended in PBS containing 2% FBS for analysis using a flow cytometer. Viable cells (PI-cells) were analyzed by flow cytometry at a constant flow rate to count the number of cells and calculated as a percentage of control cells treated with vehicle. Table 1 depicts the EC50 values of the compounds of Formula (I) and compounds of Formula (II) against normal WI38 and IR-induced senescent WI38.

[2] = tested on: IR-induced senescent WI38 cells (IR-SC); experiment: Viability of IR-induced senescent WI38 cells (IR-SC), 72 h, PI staining and flow cytometry; conditions: for EC50: Homo sapiens, WI-38, IR-induced senescent WI38 cells, 72 hours, viable (PI-) cells as percentage of vehicle control; for Ratio NSC/SC: ratio of WI38 EC50 in NSC to EC50 in IR-SC; for Selective inhibition of IR-SC WI38 cells versus normal WI38 cells: FIG. 2A, FIG. 2B, increasing concentrations
Protocol: as §1

[3] = tested on: RS4; 11 cancer cells; experiment: Cancer cell viability by MTS, 72 h, RS4;11; conditions: Homo sapiens, RS4;11 cells
Protocol: (§2) RS4; 11 and NCI-H146 cancer cells were incubated with vehicle or increasing concentrations of compounds of Formula (I) and Formula (II). At 72 hours post-treatment cell viability was measured by MTS and EC50 was calculated as a percentage of control cells treated with vehicle. Table 1 depicts the EC50 values of compounds of Formula (I) and Formula (II) against RS4; 11 and NCI-H146.

[4] = tested on: NCI-H146 cancer cells; experiment: Cancer cell viability by MTS, 72 h, NCI-H146; conditions: Homo sapiens
Protocol: as §2

EC50 [3]	EC50 [4]	SMILES	EC50 [1]	EC50 [2]	Ratio NSC/SC [2]	Selective inhibition of IR-SC WI38 cells versus normal WI38 cells [2]
		CC1(C)CCC(CN2CCN(c3ccc(C(=O)NS(=O)(=O)c4ccc(NCC5CCOCC5)c([N+](=O)[O-])c4)c(Oc4cnc5[nH]ccc5c4)c3)CC2)=C(c2ccc(Cl)cc2)C1 [ABT-199, venetoclax, reference compound]	> 10 µM	> 10 µM		
0.016 µM	0.0275 µM	CC1(C)CCC(c2ccc(Cl)cc2)=C(CN2CCN(c3ccc(C(=O)NS(=O)(=O)c4ccc(N[C@H](CCN5CCOCC5)CSc5ccccc5)c(S(=O)(=O)C(F)(F)F)c4)cc3)CC2)C1 [ABT-263, navitoclax, reference compound]	12.6 µM	0.61 µM	20.6	
		O=C1CCC(N2C(=O)c3cccc(NCCOCCOCCOCc4cn(CCCC(=O)N5CCN(CC#Cc6ccc(OCCCc7sc(N8CCc9cccc(C(=O)Nc%10nc%11ccccc%11s%10)c9C8)nc7C(=O)O)c(F)c6)CC5)nn4)c3C2=O)C(=O)N1 (stereo not shown) [XZ-12906, 2-(8-(benzo[d]thiazol-2-ylcarbamoyl)-3,4-dihydroisoquinolin-2(1H)-yl)-5-(3-(4-(3-(4-(4-(4-((2-(2-(2-(2-(2,6-dioxopiperidin-3-yl)-1,3-dioxoisoindolin-4-ylamino)ethoxy)ethoxy)ethoxy)methyl)-1H-1,2,3-triazol-1-yl)butanoyl)piperazin-1-yl)prop-1-ynyl)-2-fluorophenoxy)propyl)thiazole-4-carboxylic acid]				selectively inhibit IR-SC WI38 cells but not normal WI 38 cells in a dose dependent manner
		CC(C)(C)OC(=O)N1CCN(CC#Cc2ccc(OCCCc3sc(N4CCc5cccc(C(=O)Nc6nc7ccccc7s6)c5C4)nc3C(=O)O)c(F)c2)CC1 [XZ-13861, 2-(8-(benzo[d]thiazol-2-ylcarbamoyl)-3,4-dihydroisoquinolin-2(1H)-yl)-5-(3-(4-(3-(4-(tert-butoxycarbonyl)piperazin-1-yl)prop-1-ynyl)-2-fluorophenoxy)propyl)thiazole-4-carboxylic acid]	32.8 µM	3.12 µM	10.51	selectively inhibit IR-SC WI38 cells but not normal WI 38 cells in a dose dependent manner
		O=C1CCC(N2C(=O)c3cccc(NCCOCCOCc4cn(CCCC(=O)N5CCN(CC#Cc6ccc(OCCCc7sc(N8CCc9cccc(C(=O)Nc%10nc%11ccccc%11s%10)c9C8)nc7C(=O)O)c(F)c6)CC5)nn4)c3C2=O)C(=O)N1 (stereo not shown) [XZ-14424, 2-(8-(benzo[d]thiazol-2-ylcarbamoyl)-3,4-dihydroisoquinolin-2(1H)-yl)-5-(3-(4-(3-(4-(4-(4-((2-(2-((2-(2,6-dioxopiperidin-3-yl)-1,3-dioxoisoindolin-4-yl)amino)ethoxy)ethoxy)methyl)-1H-1,2,3-triazol-1-yl)butanoyl)piperazin-1-yl)prop-1-yn-1-yl)-2-fluorophenoxy)propyl)thiazole-4-carboxylic acid]	1.6 µM	1.4 µM	1.2	
> 2 µM	> 2 µM	Cc1ncsc1-c1ccc(CNC(=O)[C@@H]2C[C@@H](O)CN2C(=O)[C@@H](NC(=O)COCCOCCOCc2cn(CCCC(=O)N3CCN(CC#Cc4ccc(OCCCc5sc(N6CCc7cccc(C(=O)Nc8nc9ccccc9s8)c7C6)nc5C(=O)O)c(F)c4)CC3)nn2)C(C)(C)C)cc1 [XZ-14455, 2-(8-(benzo[d]thiazol-2-ylcarbamoyl)-3,4-dihydroisoquinolin-2(1H)-yl)-5-(3-(2-fluoro-4-(3-(4-(4-(4-((S)-12-((2S,4R)-4-hydroxy-2-((4-(4-methylthiazol-5-yl)benzyl)carbamoyl)pyrrolidine-1-carbonyl)-13,13-dimethyl-10-oxo-2,5,8-trioxa-11-azatetradecyl)-1H-1,2,3-triazol-1-yl)butanoyl)piperazin-1-yl)-prop-1-yn-1-yl)phenoxy)propyl)thiazole-4-carboxylic acid]	5 µM	1.47 µM	3.40	
0.09 µM	0.065 µM	CC1(C)CCC(c2ccc(Cl)cc2)=C(CN2CCN(c3ccc(C(=O)NS(=O)(=O)c4ccc(N[C@H](CCN5CCN(C(=O)NCCOCCOCCNc6cccc7c6C(=O)N(C6CCC(=O)NC6=O)C7=O)CC5)CSc5ccccc5)c(S(=O)(=O)C(F)(F)F)c4)cc3)CC2)C1 (stereo partly drawn) [XZ-14509, 4-((R)-3-(4-(N-(4-(4-((2-(4-chlorophenyl)-5,5-dimethylcyclohex-1-enyl)methyl)piperazin-1-yl)benzoyl)sulfamoyl)-2-(trifluoromethylsulfonyl)phenylamino)-4-(phenylthio)butyl)-N-(2-(2-(2-(2-(2,6-dioxopiperidin-3-yl)-1,3-dioxoisoindolin-4-ylamino)ethoxy)ethoxy)ethyl)piperazine-1-carboxamide]	> 10 µM	0.226 µM	>44.22	
1.09 µM	0.517 µM	CC1(C)CCC(c2ccc(Cl)cc2)=C(CN2CCN(c3ccc(C(=O)NS(=O)(=O)c4ccc(N[C@H](CCN5CCN(C(=S)NCCOCCOCCNc6cccc7c6C(=O)N(C6CCC(=O)NC6=O)C7=O)CC5)CSc5ccccc5)c(S(=O)(=O)C(F)(F)F)c4)cc3)CC2)C1 (stereo partly drawn) [XZ-14516, 4-(4-((2-(4-chlorophenyl)-5,5-dimethylcyclohex-1-enyl)methyl)piperazin-1-yl)-N-(4-((2R)-4-(4-(2-(2-(2-(2-(2,6-dioxopiperidin-3-yl)-1,3-dioxoisoindolin-4-ylamino)ethoxy)ethoxy)ethylcarbamothioyl)piperazin-1-yl)-1-(phenylthio)butan-2-ylamino)-3-(trifluoromethylsulfonyl)phenylsulfonyl)benzamide]	> 10 µM	0.092 µM	>109	
0.047 µM	1.1 µM	CC1(C)CCC(CN2CCN(c3ccc(C(=O)NS(=O)(=O)c4ccc(NCC5CCN(C(=O)COCCOCCOCCNc6cccc7c6C(=O)N(C6CCC(=O)NC6=O)C7=O)CC5)c([N+](=O)[O-])c4)c(Oc4cnc5[nH]ccc5c4)c3)CC2)=C(c2ccc(Cl)cc2)C1 (stereo not shown) [XZ-14522]	> 10 µM	> 10 µM		
0.161 µM	1.26 µM	CC1(C)CCC(CN2CCN(c3ccc(C(=O)NS(=O)(=O)c4ccc(NCC5CCN(C(=O)CCCn6cc(COCCOCCOCCNc7cccc8c7C(=O)N(C7CCC(=O)NC7=O)C8=O)nn6)CC5)c([N+](=O)[O-])c4)c(Oc4cnc5[nH]ccc5c4)c3)CC2)=C(c2ccc(Cl)cc2)C1 (stereo not shown) [XZ-14523, 2-((1H-pyrrolo[2,3-b]pyridin-5-yl)oxy)-4-(4-((4′-chloro-5,5-dimethyl-3,4,5,6-tetrahydro-[1,1′-biphenyl]-2-yl)methyl)piperazin-1-yl)-N-((4-(((1-(4-(4-((2-(2-(2-((2-(2,6-dioxopiperidin-3-yl)-1,3-dioxoisoindolin-4-yl)amino)ethoxy)ethoxy)ethoxy)methyl)-1H-1,2,3-triazol-1-yl)butanoyl)piperidin-4-yl)methyl)amino)-3-nitrophenyl)sulfonyl)benzamide]	> 10 µM	> 10 µM		
0.397 µM	> 2 µM	Cc1ncsc1-c1ccc(CNC(=O)[C@@H]2C[C@@H](O)CN2C(=O)[C@@H](NC(=O)CCC(=O)NCCOCCOCCNC(=O)N2CCC(CNc3ccc(S(=O)(=O)NC(=O)c4ccc(N5CCN(CC6=C(c7ccc(Cl)cc7)CC(C)(C)CC6)CC5)cc4Oc4cnc5[nH]ccc5c4)cc3[N+](=O)[O-])CC2)C(C)(C)C)cc1 [XZ-14528, N1-(2-(2-(2-(4-(((4-N-(2-((1H-pyrrolo[2,3-b]pyridin-5-yl)oxy)-4-(4-((4′-chloro-5,5-dimethyl-3,4,5,6-tetrahydro-(1,1′-biphenyl-2-yl)methyl)piperazin-1-yl)benzoyl)sulfamoyl)-2-nitrophenyl)amino)methyl)piperidine-1-carboxamido)ethoxy)ethoxy)ethyl)-N4-((S)-1-((2S,4R)-4-hydroxy-2-((4-(4-methylthiazol-5-yl)benzyl)carbamoyl)pyrrolidin-1-yl)-3,3-dimethyl-1-oxobutan-2-yl)succinamide]	> 10 µM	> 10 µM		

SMILES	EC50 [3]	EC50 [4]	EC50 [1]	EC50 [2]	Ratio NSC/SC [2]	Selective inhibition of IR-SC WI38 cells versus normal WI38 cells [2]
CC1(C)CCC(c2ccc(Cl)cc2)=C(CN2CCN(c3ccc(C(=O)NS(=O)(=O)c4ccc(N[C@H](CCN5CCN(C(=O)COCCOCCOCCNc6cccc7c6C(=O)N(C6CCC(=O)NC6=O)C7=O)CC5)CSc5ccccc5)c(S(=O)(=O)C(F)(F)F)c4)cc3)CC2)C1 (stereo partly shown) [XZ-14510]	0.22 µM	0.112 µM	> 10 µM	0.177 µM	>56	
CC1(C)CCC(c2ccc(Cl)cc2)=C(CN2CCN(c3ccc(C(=O)NS(=O)(=O)c4ccc(N[C@H](CCN5CCN(C(=O)COCCOCCNc6cccc7c6C(=O)N(C6CCC(=O)NC6=O)C7=O)CC5)CSc5ccccc5)c(S(=O)(=O)C(F)(F)F)c4)cc3)CC2)C1 (stereo partly shown) [XZ-14515]	0.173 µM	0.0792 µM	> 10 µM	0.158 µM	>63.27	
